Assay results published in patent US11596614B2, “Treatment of intrahepatic cholestatic diseases” (CymaBay Therapeutics, Inc., priority 2014, dated 2023).

How the values were obtained:
[1] = tested on: subjects with mixed dyslipidemia; settings: cited from earlier work
[2] = tested on: subjects with an intrahepatic cholestatic disease such as PBC; assay: Example 2: treatment of adult subjects with an intrahepatic cholestatic disease such as PBC; type: in vivo, human; settings: 5, 10, 25, or 50 mg/day orally
Procedure: Subjects are permitted their usual other medications, including UDCA. […] At each visit, after a 12-hour fast, blood is drawn and urine collected; and a standard metabolic panel, complete blood count, and standard urinalysis are performed. Blood is analyzed for TC, HDL-C, TG, VLDL-C, LDL-C, and apolipoprotein B, for liver function markers such as total and bone-specific alkaline phosphatases, for γ-glutamyl transpeptidase, and also for total and conjugated bilirubin. The subjects also maintain health diaries, which are reviewed at each visit.

[3] = gradient-gel electrophoresis, cited from earlier work
[4] = molecular target: T1, PPARa (Homo sapiens, UniProt Q07869); assay: Specificity for PPARδ compared with PPARa; type: biochemical
T1 sequence (Q07869 1-468): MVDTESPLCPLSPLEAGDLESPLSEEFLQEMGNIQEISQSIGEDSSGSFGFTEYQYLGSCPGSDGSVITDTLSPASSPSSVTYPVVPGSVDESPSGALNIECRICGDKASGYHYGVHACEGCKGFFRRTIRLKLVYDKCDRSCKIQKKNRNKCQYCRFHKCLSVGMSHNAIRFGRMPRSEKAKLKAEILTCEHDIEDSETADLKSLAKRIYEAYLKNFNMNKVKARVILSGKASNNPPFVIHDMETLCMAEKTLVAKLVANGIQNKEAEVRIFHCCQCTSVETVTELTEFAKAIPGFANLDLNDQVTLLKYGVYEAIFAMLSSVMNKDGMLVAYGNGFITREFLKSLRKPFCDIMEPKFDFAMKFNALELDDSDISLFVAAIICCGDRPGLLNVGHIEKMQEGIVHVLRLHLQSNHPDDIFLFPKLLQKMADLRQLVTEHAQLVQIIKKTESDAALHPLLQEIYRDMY
From the text: It is specific (>600-fold and >2500-fold compared with PPARa and peroxisome proliferator-activated receptor-γ receptors). PPARδ activation stimulates fatty acid oxidation and utilization, improves plasma lipid and lipoprotein metabolism, glucose utilization, and mitochondrial respiration, and preserves stem cell homeostasis.

[5] = Preclinical elimination study; type: in vivo
[6] = tested on: subjects with PBC; assay: Example 1: trial in subjects with PBC on UDCA; type: in vivo, human; settings: on treatment, 50 or 200 mg/day
From the text: The trial subjects were adult, male or female, with a diagnosis of PBC by at least two of the following three criteria: (a) a history of alkaline phosphatase (ALP) above the upper limit of normal (ULN) for at least six months, (b) positive anti-mitochondrial antibody titers> 1/40 on immunofluorescence or M2 positive by enzyme linked immunosorbent assay or positive PBC-specific antinuclear antibodies, and (c) documented liver biopsy result consistent with PBC, on a stable and recommended dose of UDCA for the past twelve months, and ALP≥1.67×ULN. Exclusion criteria included AST or ALT≥3×ULN, total bilirubin (TBIL)≥2×ULN, autoimmune hepatitis or a history of chronic viral hepatitis, PSC, the current use of fibrates or simvastatin, the use of colchicine, methotrexate, azathioprine, or systemic steroids in the previous two months, the use of an experimental treatment for PBC, and the use of an experimental or unapproved immunosuppressant. The primary study endpoint was decrease in ALP, and the secondary endpoint was the responder rate for subjects achieving ALP<1.67×ULN and total bilirubin within normal limit, and >15% decrease in ALP. […] According to the original statistical plan, changes in ALP were calculated using the last observation carried forward. […]

[7] = once daily oral, 8 weeks, seladelpar 50 or 100 mg, ATV 20 mg

specificity for PPARδ compared with PPARa [4] [fold] | distribution of drug in bile [5] | SMILES | decrease of large LDL particles ([1]; once daily oral, 8 weeks, ATV 20 mg) [%] | decrease of small/very small LDL particles [1, 7] | improvement in disease (ALP and GGT) [2] | conversion of LDL particle size pattern B (predominant LDL particle size less than 25.75 nm) [3] | conversion of LDL particle size pattern I (predominant LDL particle size 25.75 nm to 26.34 nm) ([3]; pattern A = predominant LDL particle size greater than 26.34 nm) | adverse events of pruritus [6] | safety and tolerability ([1]; 50 or 100 mg once daily oral, 8 weeks) | reduction of high-sensitivity C-reactive protein ([1]; compared to placebo, seladelpar 50 or 100 mg once daily oral alone and in combination with ATV 20 mg, 8 weeks, P<0.05) | raise of HDL-C ([1]; compared to placebo, seladelpar 50 or 100 mg once daily oral alone and in combination with ATV 20 mg, 8 weeks) | reduction of the percentage of subjects meeting the criteria for metabolic syndrome ([1]; mixed dyslipidemia) [fold] | increase of large LDL particles ([1]; once daily oral, 8 weeks, seladelpar 50 or 100 mg)
 |  | CC(C)c1c(C(=O)Nc2ccccc2)c(-c2ccccc2)c(-c2ccc(F)cc2)n1CC[C@@H](O)C[C@@H](O)CC(=O)O [ATV, atorvastatin, reference compound] | 30 | 25% |  |  |  |  |  |  |  |  | 
> 600 | concentrated in bile | CCO[C@H](COc1ccc(C(F)(F)F)cc1)CSc1ccc(OCC(=O)O)c(C)c1 [Seladelpar, (R)-2-(4-((2-ethoxy-3-(4-(trifluoromethyl)phenoxy)propyl)thio)-2-methylphenoxy)acetic acid] |  | 40-48% | a decrease in ALP and GGT | to pattern I or A | to pattern A | no adverse events of pruritus were reported | safe and generally well-tolerated | 43-72% | 1-12% | > 2 | 34-44%
